For 16 compounds, IC50 results are on record in US7872004B2, “6-(heterocyclyl-substituted benzyl)-4-oxoquinoline compound and use thereof as HIV integrase inhibitor” (Japan Tobacco Inc., priority 2006, dated 2011).

This test concerns the target T1, HIV integrase (Human immunodeficiency virus type 1 group M subtype B, UniProt P12497, F1332H).
T1 construct: HIV integrase full length gene; made in house; host or cells: Escherichia coli BL21(DE3)
Put plainly: Determination of enzyme (HIV integrase) inhibitory activity. It is filed as biochemical, HIV (Human Immunodeficiency Virus (type 1)). The conditions noted are these: recombinant integrase protein (F185H), strand transfer plate assay, absorbance at 450 nm.
One may read the IC50 as the concentration that inhibits the measured activity by half. Take `COc1cc2c(cc1Cc1cc(N3CCCC3=O)c(F)c(Cl)c1F)c(=O)c(C(=O)O)cn2[C@H](CO)C(C)C` [Example 25, 6-[3-chloro-2,4-difluoro-5-(2-oxopyrrolidin-1-yl)benzyl]-1-((S)-1-hydroxymethyl-2-methylpropyl)-7-methoxy-4-oxo-1,4-dihydroquinoline-3-carboxylic acid]: the concentration for half-maximal inhibition (IC50) is less than 10 nM.

As for `COc1cc2c(cc1Cc1cc(N3CCCC3=O)cc(Cl)c1F)c(=O)c(C(=O)O)cn2[C@H](CO)C(C)C` [Example 2, 6-[3-chloro-2-fluoro-5-(2-oxopyrrolidin-1-yl)benzyl]-1-((S)-1-hydroxymethyl-2-methylpropyl)-7-methoxy-4-oxo-1,4-dihydroquinoline-3-carboxylic acid], the half-maximal inhibitory concentration (IC50) is less than 10 nM.

As for `COc1cc2c(cc1Cc1cc(N3CCOCC3)cc(Cl)c1F)c(=O)c(C(=O)O)cn2[C@H](CO)C(C)(C)C` [Example 17, 6-[3-chloro-2-fluoro-5-(morpholin-4-yl)benzyl]-1-((S)-1-hydroxymethyl-2,2-dimethylpropyl)-7-methoxy-4-oxo-1,4-dihydroquinoline-3-carboxylic acid], the half-maximal inhibitory concentration (IC50) is less than 10 nM.

As to `COc1cc2c(cc1Cc1cc(N3CC[C@H](O)C3)cc(Cl)c1F)c(=O)c(C(=O)O)cn2[C@H](CO)C(C)C` [Example 9, 6-[3-chloro-2-fluoro-5-((S)-3-hydroxypyrrolidin-1-yl)benzyl]-1-((S)-1-hydroxymethyl-2-methylpropyl)-7-methoxy-4-oxo-1,4-dihydroquinoline-3-carboxylic acid], the half-inhibitory concentration (IC50) was less than 10 nM.

Turning to `COc1cc2c(cc1Cc1cc(N3CC[C@@H](O)C3)cc(Cl)c1F)c(=O)c(C(=O)O)cn2[C@H](CO)C(C)C` [Example 8, 6-[3-chloro-2-fluoro-5-((R)-3-hydroxypyrrolidin-1-yl)benzyl]-1-((S)-1-hydroxymethyl-2-methylpropyl)-7-methoxy-4-oxo-1,4-dihydroquinoline-3-carboxylic acid], the half-maximal inhibitory concentration (IC50) is less than 10 nM.

For `COc1cc2c(cc1Cc1cc(-c3ccccn3)cc(Cl)c1F)c(=O)c(C(=O)O)cn2[C@H](CO)C(C)C` [Example 36, 6-[3-chloro-2-fluoro-5-(pyridin-2-yl)benzyl]-1-((S)-1-hydroxymethyl-2-methylpropyl)-7-methoxy-4-oxo-1,4-dihydroquinoline-3-carboxylic acid], the IC50 is less than 10 nM.

Turning to `COc1cc2c(cc1Cc1cc(N3CCOCC3)c(F)c(Cl)c1F)c(=O)c(C(=O)O)cn2[C@H](CO)C(C)C` [Example 16, 6-[3-chloro-2,4-difluoro-5-(morpholin-4-yl)benzyl]-1-((S)-1-hydroxymethyl-2-methylpropyl)-7-methoxy-4-oxo-1,4-dihydroquinoline-3-carboxylic acid], the 50% inhibitory concentration (IC50) is less than 10 nM.

As to `COc1cc2c(cc1Cc1cc(N3CCCC3=O)cc(Cl)c1F)c(=O)c(C(=O)O)cn2[C@H](CO)[C@@H](C)OC` [Example 48, 6-[3-chloro-2-fluoro-5-(2-oxopyrrolidin-1-yl)benzyl]-1-((1R,2R)-1-hydroxymethyl-2-methoxypropyl)-7-methoxy-4-oxo-1,4-dihydroquinoline-3-carboxylic acid], the IC50 was less than 10 nM.

On to `CCc1cc2c(cc1Cc1cc(N3CCCC3=O)c(F)c(Cl)c1F)c(=O)c(C(=O)O)cn2[C@H](CO)C(C)(C)C` [Example 55, 6-[3-chloro-2,4-difluoro-5-(2-oxopyrrolidin-1-yl)benzyl]-7-ethyl-1-((S)-1-hydroxymethyl-2,2-dimethylpropyl)-4-oxo-1,4-dihydroquinoline-3-carboxylic acid], for which the half-inhibitory concentration (IC50) lay in the range of 10 to 100 nM.

Take `COc1cc2c(cc1Cc1cc(N3CCCC3)cc(Cl)c1F)c(=O)c(C(=O)O)cn2[C@H](CO)C(C)C` [Example 3, 6-[3-chloro-2-fluoro-5-(pyrrolidin-1-yl)benzyl]-1-((S)-1-hydroxymethyl-2-methylpropyl)-7-methoxy-4-oxo-1,4-dihydroquinoline-3-carboxylic acid]: the IC50 is less than 10 nM.

Turning to `COc1cc2c(cc1Cc1cc(-c3noc(C)n3)cc(Cl)c1F)c(=O)c(C(=O)O)cn2[C@H](CO)C(C)C` [Example 57, 6-[3-chloro-2-fluoro-5-(5-methyl-1,2,4-oxadiazol-3-yl)benzyl]-1-((S)-1-hydroxymethyl-2-methylpropyl)-7-methoxy-4-oxo-1,4-dihydroquinoline-3-carboxylic acid], the IC50 is less than 10 nM.

In the case of `CCO[C@H](C)[C@@H](CO)n1cc(C(=O)O)c(=O)c2cc(Cc3cc(N4CCCC4=O)cc(Cl)c3F)c(CC)cc21` [Example 40, 6-[3-chloro-2-fluoro-5-(2-oxopyrrolidin-1-yl)benzyl]-1-[(1R,2R)-2-ethoxy-1-(hydroxymethyl)propyl]-7-ethyl-4-oxo-1,4-dihydroquinoline-3-carboxylic acid], the half-maximal inhibitory concentration (IC50) lay in the range of 10 to 100 nM.

As to `COCC[C@@H](CO)n1cc(C(=O)O)c(=O)c2cc(Cc3cc(N4CCOCC4)cc(Cl)c3F)c(OC)cc21` [Example 29, 6-[3-chloro-2-fluoro-5-(morpholin-4-yl)benzyl]-1-((S)-1-hydroxymethyl-3-methoxypropyl)-7-methoxy-4-oxo-1,4-dihydroquinoline-3-carboxylic acid], the IC50 is less than 10 nM.

As to `COc1cc2c(cc1Cc1cc(N3CC[C@H](F)C3)cc(Cl)c1F)c(=O)c(C(=O)O)cn2[C@H](CO)C(C)C` [Example 14, 6-[3-chloro-2-fluoro-5-((S)-3-fluoropyrrolidin-1-yl)benzyl]-1-((S)-1-hydroxymethyl-2-methylpropyl)-7-methoxy-4-oxo-1,4-dihydroquinoline-3-carboxylic acid], the IC50 was less than 10 nM.

As for `COc1cc2c(cc1Cc1cc(N3CCOCC3)c(F)c(Cl)c1F)c(=O)c(C(=O)O)cn2[C@H](CO)C(C)(C)C` [Example 49, 6-[3-chloro-2,4-difluoro-5-(morpholin-4-yl)benzyl]-1-((S)-1-hydroxymethyl-2,2-dimethylpropyl)-7-methoxy-4-oxo-1,4-dihydroquinoline-3-carboxylic acid], the IC50 is less than 10 nM.

Take `COc1cc2c(cc1Cc1cc(N3CCOCC3)cc(Cl)c1F)c(=O)c(C(=O)O)cn2[C@H](CO)C(C)(C)OC` [Example 42, 6-[3-chloro-2-fluoro-5-(morpholin-4-yl)benzyl]-1-((R)-1-hydroxymethyl-2-methoxy-2-methylpropyl)-7-methoxy-4-oxo-1,4-dihydroquinoline-3-carboxylic acid]: the 50% inhibitory concentration (IC50) was less than 10 nM.
